According to patent US8030499B2, “1,3-dihydro-2H-indole-2-one compound and pyrrolidine-2-one compound fused with aromatic heterocycle” (Taisho Pharmaceutical Co., Ltd., priority 2005, dated 2011):
One block for each compound: values may come before it.

Legend:
[1] = biological target: T1, human V1b receptor (Homo sapiens, UniProt P47901); experiment: V1b receptor binding assay ([3H](Arg8)-vasopressin, crude membranes of CHO cells); conditions: receptor binding test, human V1b, CHO cell membranes
T1 construct: expressed in transfected cells; host or cells: CHO cells
T1 sequence (P47901 1-424): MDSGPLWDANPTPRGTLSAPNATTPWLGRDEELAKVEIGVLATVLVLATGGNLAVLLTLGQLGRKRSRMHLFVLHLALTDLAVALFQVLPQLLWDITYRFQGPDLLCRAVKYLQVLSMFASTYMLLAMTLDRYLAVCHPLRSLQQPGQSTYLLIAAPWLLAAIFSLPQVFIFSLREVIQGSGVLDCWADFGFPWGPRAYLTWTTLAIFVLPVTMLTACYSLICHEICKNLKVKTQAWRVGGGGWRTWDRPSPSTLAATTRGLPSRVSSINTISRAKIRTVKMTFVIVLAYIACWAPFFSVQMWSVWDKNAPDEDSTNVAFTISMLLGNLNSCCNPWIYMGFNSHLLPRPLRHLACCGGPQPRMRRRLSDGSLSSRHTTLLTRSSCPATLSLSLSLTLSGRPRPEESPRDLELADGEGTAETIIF
Description: (§1) A summary of the methods is given below.
(§2) Each obtained homogenate was centrifuged for 20 minutes at 50,000×g and 4° C., the sediment was resuspended in a 50 mmol/L Tris hydrochloric acid buffer solution (pH7.4, containing 10 mmol/L magnesium chloride and 0.1% bovine serum albumin), which served as a crude membrane preparation. This crude membrane preparation was added with [^3H] (Arg^8) vasopressin (final concentration: 0.1 nmol/L to 0.4 nmol/L), and each test drug (final concentration: 0.1 nmol/L to lμmol/L or 0.01 nmol/L to 0.1 μmol/L) to 22° C. for 90 minutes. After the end of the reaction, the reaction solution was filtrated using a GF/C glass fiber filter, which had been presoaked in 0.3% polyethyleneimine for two hours. After the GF/C glass fiber filter was dried sufficiently, scintillator was added, and the radioactivity on the filter was measured using a liquid scintillation counter. Binding of [^3H] (Arg^8)-vasopressin in the presence of (Arg^8)-vasopressin, in the amounts of 0.1 μmol/L in the V1b receptor binding assay and 5 μmol/L in the V1a and V2 receptor binding assay, were taken as non-specific binding, and the value obtained by subtracting non-specific binding from the total binding in the absence (Arg^8)-vasopressin served as specific binding.
In addition, regarding the V1b receptor binding assay, the value obtained by, subtracting the amount of binding in the presence of 0.1 μmol/L test drug from the total amount of binding, divided by the amount of specific binding, served as the rate of inhibition (% of inhibition) of the test drug at the concentration tested.

[2] = biological target: T2, human V1a receptor (Homo sapiens, UniProt P37288); experiment: V1a receptor binding assay ([3H](Arg8)-vasopressin, crude membranes of 293FT cells); conditions: receptor binding test, 293FT cell membranes
T2 construct: expressed in transfected cells; host or cells: 293FT cells
T2 sequence (P37288 whole entry): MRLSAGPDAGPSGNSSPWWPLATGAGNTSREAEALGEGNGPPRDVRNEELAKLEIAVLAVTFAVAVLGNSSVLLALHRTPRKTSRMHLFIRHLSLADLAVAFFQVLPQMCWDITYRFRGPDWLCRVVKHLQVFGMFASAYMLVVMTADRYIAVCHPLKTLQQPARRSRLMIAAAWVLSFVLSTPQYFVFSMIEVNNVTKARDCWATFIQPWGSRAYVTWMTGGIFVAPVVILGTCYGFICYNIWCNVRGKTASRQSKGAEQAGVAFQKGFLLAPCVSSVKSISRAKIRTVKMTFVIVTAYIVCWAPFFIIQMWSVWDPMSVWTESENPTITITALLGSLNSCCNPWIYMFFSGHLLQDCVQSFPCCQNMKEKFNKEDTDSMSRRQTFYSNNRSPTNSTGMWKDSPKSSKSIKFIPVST
Description: as §1, §2

[3] = biological target: T3, human V2 receptor (Homo sapiens, UniProt P30518); experiment: V2 receptor binding assay ([3H](Arg8)-vasopressin, crude membranes of 293FT cells); conditions: receptor binding test, human V2, 293FT cell membranes
T3 construct: expressed in transfected cells; host or cells: 293FT cells
T3 sequence (P30518 whole entry): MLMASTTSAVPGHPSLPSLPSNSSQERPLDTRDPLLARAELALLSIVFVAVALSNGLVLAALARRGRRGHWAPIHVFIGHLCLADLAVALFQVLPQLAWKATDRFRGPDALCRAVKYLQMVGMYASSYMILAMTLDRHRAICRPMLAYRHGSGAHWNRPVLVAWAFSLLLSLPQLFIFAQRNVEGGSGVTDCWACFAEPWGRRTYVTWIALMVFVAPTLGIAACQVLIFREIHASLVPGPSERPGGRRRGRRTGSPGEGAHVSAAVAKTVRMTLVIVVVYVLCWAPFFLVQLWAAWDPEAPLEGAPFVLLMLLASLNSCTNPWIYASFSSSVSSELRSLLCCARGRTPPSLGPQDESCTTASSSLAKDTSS
Description: as §1, §2

SMILES: COc1ccc(S(=O)(=O)N2C(=O)C(c3cc(-c4ccncc4)ccc3OC)(N3C[C@H](O)C[C@H]3C(=O)N(C)C)c3cc(Cl)ccc32)c(OC(F)(F)F)c1 (single isomer, unassigned) [Example 192]
IC50 [1]: 4.3 nM | IC50 [2]: 792 nM | IC50 [3]: > 10000 nM

SMILES: COc1ccc(S(=O)(=O)N2C(=O)C(c3ccccc3OC)(N3CCC[C@H]3C(=O)N(C)C)c3cc(Cl)ccc32)c(OC(F)(F)F)c1 (single isomer, unassigned) [Example 5, 1-(5-chloro-3-(2-methoxyphenyl)-1-{[4-methoxy-2-(trifluoromethoxy)phenyl]sulfonyl}-2-oxo-2,3-dihydro-1H-indol-3-yl)-N,N-dimethyl-L-prolinamide]
IC50 [1]: 16 nM | IC50 [2]: 2180 nM | IC50 [3]: > 10000 nM

SMILES: COc1ccc(S(=O)(=O)N2C(=O)C(O[C@@H](C)C(=O)N(C)C)(c3ccccc3OC)c3cc(Cl)ccc32)c(OC(F)(F)F)c1 (single isomer, unassigned) [Example 81]
IC50 [1]: 18 nM | IC50 [2]: 677 nM | IC50 [3]: > 10000 nM

SMILES: COc1ccc(S(=O)(=O)N2C(=O)C(c3cc(N4CCOCC4)ccc3OC)(N3C[C@H](O)C[C@H]3C(=O)N(C)C)c3cc(Cl)ccc32)c(OC(F)(F)F)c1 (single isomer, unassigned) [Example 191]
IC50 [1]: 1.8 nM | IC50 [2]: 293 nM | IC50 [3]: 3340 nM

SMILES: COc1ccc(S(=O)(=O)N2C(=O)C(c3cc(C)ccc3OC)(N3C[C@H](OCC(N)=O)C[C@H]3C(=O)N(C)C)c3cc(Cl)ccc32)c(OC(F)(F)F)c1 (single isomer, unassigned) [Example 147]
IC50 [1]: 1.2 nM | IC50 [2]: 1110 nM | IC50 [3]: 5650 nM

SMILES: COc1ccc(S(=O)(=O)N2C(=O)C(c3ccccc3OC)(N3CCCC[C@H]3C(=O)N(C)C)c3cc(Cl)ccc32)c(OC(F)(F)F)c1 (single isomer, unassigned) [Example 31]
IC50 [1]: 5.2 nM | IC50 [2]: 953 nM | IC50 [3]: > 10000 nM

SMILES: COc1ccc(S(=O)(=O)N2C(=O)C(c3cccnc3OC)(N3C[C@H](O)C[C@H]3C(=O)N(C)C)c3cc(Cl)ccc32)c(OC(F)F)c1 (single isomer, unassigned) [Example 170]
IC50 [1]: 0.56 nM | IC50 [2]: 65.1 nM | IC50 [3]: 4050 nM

SMILES: COc1ccc(S(=O)(=O)N2C(=O)C(c3cc(CN(C)C)ccc3OC)(N3C[C@H](O)C[C@H]3C(=O)N(C)C)c3cc(Cl)ccc32)c(OC(F)(F)F)c1 (single isomer, unassigned) [Example 195 A]
IC50 [1]: 0.56 nM | IC50 [2]: 573 nM | IC50 [3]: > 10000 nM

SMILES: COc1ccc(S(=O)(=O)N2C(=O)C(c3cc(C)ccc3OC)(N3C[C@H](O)C[C@H]3C(=O)N(C)C)c3cc(Cl)ccc32)c(OC(F)(F)F)c1 (single isomer, unassigned) [Example 103]
IC50 [1]: 2.3 nM | IC50 [2]: 504 nM | IC50 [3]: 3370 nM

Further compounds by falling IC50 [1], results first:

IC50 [1]: 31 nM | IC50 [2]: > 10000 nM | IC50 [3]: > 10000 nM
SMILES: COc1ccc(S(=O)(=O)N2C(=O)C(c3ccccc3OC)(N3Cc4ccccc4C[C@H]3C(=O)N(C)C)c3cc(Cl)ccc32)c(OC(F)(F)F)c1 (single isomer, unassigned) [Example 38 A]

IC50 [1]: 11 nM | IC50 [2]: 6790 nM | IC50 [3]: > 10000 nM
SMILES: COc1ccc(S(=O)(=O)N2C(=O)C(c3cc(C)ccc3OC)(N3C[C@H](O)C[C@H]3C(=O)N(C)C)c3cc(Br)cnc32)c(OC(F)(F)F)c1 (single isomer, unassigned) [Example 120]

IC50 [1]: 7.1 nM | IC50 [2]: 3760 nM | IC50 [3]: > 10000 nM
SMILES: COc1ccc(S(=O)(=O)N2C(=O)C(c3ccccc3OC)(N3CCOC[C@H]3C(=O)N(C)C)c3cc(Cl)ccc32)c(OC(F)(F)F)c1 (single isomer, unassigned) [Example 41]

IC50 [1]: 6.3 nM | IC50 [2]: 4050 nM | IC50 [3]: > 10000 nM
SMILES: COc1ccc(S(=O)(=O)N2C(=O)C(c3ccccc3OC)(N(C)[C@@H](C)C(=O)N(C)C)c3cc(Cl)ccc32)c(OC(F)(F)F)c1 (single isomer, unassigned) [Example 71]

IC50 [1]: 2.6 nM | IC50 [2]: 743 nM | IC50 [3]: 4010 nM
SMILES: COc1ccc(S(=O)(=O)N2C(=O)C(c3ccccc3OC)(N3C[C@H](O)C[C@H]3C(=O)N(C)C)c3cc(Cl)ccc32)c(OC(F)(F)F)c1 (single isomer, unassigned) [Example 2]

IC50 [1]: 1.1 nM | IC50 [2]: 355 nM | IC50 [3]: 3190 nM
SMILES: COc1ccc(S(=O)(=O)N2C(=O)C(c3cc(C)ccc3OC)(N3C[C@H](OCCCN(C)C)C[C@H]3C(=O)N(C)C)c3cc(Cl)ccc32)c(OC(F)(F)F)c1 (single isomer, unassigned) [Example 140]

IC50 [1]: 0.96 nM | IC50 [2]: 404 nM | IC50 [3]: 3100 nM
SMILES: COc1ccc(S(=O)(=O)N2C(=O)C(c3cc(CCO)ccc3OC)(N3C[C@H](O)C[C@H]3C(=O)N(C)C)c3cc(Cl)ccc32)c(OC(F)(F)F)c1 (single isomer, unassigned) [Example 217]
